# Columns and labels:
# BTK [1] = target: T1, BTK (Homo sapiens (Human), UniProt Q06187); test: In Vitro BTK Kinase Assay: BTK-POLYGAT-LS ASSAY; assay type: biochemical; settings: ATP 10 μM, polyGAT 100 nM, BTK 0.25 nM, 30 minutes
# Method: The purpose of the BTK in vitro assay is to determine compound potency against BTK through the measurement of IC50. […] The BTK kinase reaction was done in a black 96 well plate (costar 3694). For a typical assay, a 24 μL aliquot of a ATP/peptide master mix (final concentration; ATP 10 μM, polyGAT 100 nM) in kinase buffer (10 mM Tris-HCl pH 7.5, 10 mM MgCl2, 200 μM […], 5 mM DTT, 0.01% Triton X-100, and 0.2 mg/ml casein) is added to each well. Next, […] of a 4-fold, 40× compound titration in 100% DMSO solvent is added, followed by adding 15 μL of BTK enzyme mix in 1× kinase buffer (with a final concentration of 0.25 nM). The assay is incubated for 30 minutes before being stopped with […] of a 50 mM EDTA solution. Aliquots (5 μL) of the kinase reaction are transferred to a low volume white 384 well plate (Coming 3674), and […] of a 2× detection buffer (Invitrogen PV3574, with 4 nM Tb-PY20 antibody, Invitrogen PV3552) is added. The plate is covered and incubated for 45 minutes at room temperature. Time resolved fluorescence (TRF) on Molecular Devices M5 (332 nm excitation; 488 nm emission; 518 nm fluorescein emission) is measured.
# BTK [2] = target: T1, BTK; test: In Vitro PD Assay in Human Whole Blood (pBTK assay); assay type: cell-based; settings: 37° C. for 30 min, 50% inhibition of ECL signal
# Method: Human heparinized venous blood was purchased from Bioreclamation, Inc. or SeraCare Life Sciences and shipped overnight. Whole blood was aliquoted into 96-well plate and “spiked” with serial dilutions of test compound in DMSO or with DMSO without drug. The final concentration of DMSO in all wells was 0.1%. The plate was incubated at 37° C. for 30 min. Lysis buffer containing protease and phosphatase inhibitors was added to the drug-containing samples and one of the DMSO-only samples (+PPi, high control), while lysis buffer containing protease inhibitors was added to the other DMSO-only samples (−PPi, low control). All of the lysed whole blood samples were subjected to the total BTK capture and phosphotyrosine detection method described in US20160311802, incorporated herein by reference.
# T1 sequence (Q06187 whole entry): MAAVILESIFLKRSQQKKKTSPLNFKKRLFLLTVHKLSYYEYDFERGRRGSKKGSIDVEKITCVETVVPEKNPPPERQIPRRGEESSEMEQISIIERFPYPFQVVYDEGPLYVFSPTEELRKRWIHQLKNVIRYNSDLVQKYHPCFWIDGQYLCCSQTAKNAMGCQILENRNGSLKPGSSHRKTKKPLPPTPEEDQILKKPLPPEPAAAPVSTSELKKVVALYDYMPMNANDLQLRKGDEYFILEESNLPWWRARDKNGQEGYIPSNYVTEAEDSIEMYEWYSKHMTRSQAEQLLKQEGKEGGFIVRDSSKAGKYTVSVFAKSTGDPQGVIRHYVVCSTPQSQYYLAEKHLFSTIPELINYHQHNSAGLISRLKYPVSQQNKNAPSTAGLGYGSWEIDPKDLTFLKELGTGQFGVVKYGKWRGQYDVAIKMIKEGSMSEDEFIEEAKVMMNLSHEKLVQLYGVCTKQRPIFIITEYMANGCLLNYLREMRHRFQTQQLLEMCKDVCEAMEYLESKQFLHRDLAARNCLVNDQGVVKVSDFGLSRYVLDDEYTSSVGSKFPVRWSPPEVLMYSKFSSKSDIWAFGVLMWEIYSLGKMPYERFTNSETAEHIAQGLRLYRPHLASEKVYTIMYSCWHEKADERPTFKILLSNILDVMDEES
Compound,IC50 (BTK [1]) [nM],IC50 (BTK [2]) [nM]
"Cc1c(CNC(=O)c2noc(C(C)(C)C)n2)ccc(-c2ccnc(NC(=O)C3CC3)c2)c1F [Compound 11, 5-(tert-butyl)-N-(4-(2-(cyclopropanecarboxamido)pyridin-4-yl)-3-fluoro-2-methylbenzyl)-1,2,4-oxadiazole-3-carboxamide]",≤ 1,≤ 100
"Cc1cc(-c2ccnc(NC(=O)C3CC3)c2)c(F)cc1CNC(=O)c1nc(C(C)(C)C)no1 [Compound 12, 3-(tert-butyl)-N-(4-(2-(cyclopropanecarboxamido)pyridin-4-yl)-5-fluoro-2-methylbenzyl)-1,2,4-oxadiazole-5-carboxamide]",≤ 1,100 to 500
"Cc1cc(-c2ccnc(NC(=O)C3CC3)c2)c(F)cc1CNC(=O)c1noc(C(C)(C)C)n1 [Compound 13, 5-(tert-butyl)-N-(4-(2-(cyclopropanecarboxamido)pyridin-4-yl)-5-fluoro-2-methylbenzyl)-1,2,4-oxadiazole-3-carboxamide]",≤ 1,≤ 100
"CC(C)(C)c1nc(C(=O)NCc2ccc(-c3ccnc(NC(=O)C4CC4)c3)c(F)c2Cl)no1 [Compound 14, 5-(tert-butyl)-N-(2-chloro-4-(2-(cyclopropanecarboxamido)pyridin-4-yl)-3-fluorobenzyl)-1,2,4-oxadiazole-3-carboxamide]",≤ 1,≤ 100
"CC(C)(C)c1noc(C(=O)NCc2ccc(-c3ccnc(NC(=O)C4CC4)c3)c(F)c2Cl)n1 [Compound 15, 3-(tert-butyl)-N-(2-chloro-4-(2-(cyclopropanecarboxamido)pyridin-4-yl)-3-fluorobenzyl)-1,2,4-oxadiazole-5-carboxamide]",≤ 1,≤ 100
"CC(C)(C)c1nc(C(=O)NCc2ccc(-c3ccnc(NC(=O)C4CC4)c3)cc2C(F)(F)F)no1 [Compound 16, 5-(tert-butyl)-N-(4-(2-(cyclopropanecarboxamido)pyridin-4-yl)-2-(trifluoromethyl)benzyl)-1,2,4-oxadiazole-3-carboxamide]",≤ 1,100 to 500
"CC(C)(C)c1noc(C(=O)NCc2ccc(-c3ccnc(NC(=O)C4CC4)c3)cc2C(F)(F)F)n1 [Compound 17, 3-(tert-butyl)-N-(4-(2-(cyclopropanecarboxamido)pyridin-4-yl)-2-(trifluoromethyl)benzyl)-1,2,4-oxadiazole-5-carboxamide]",≤ 1,≤ 100
"CC(C)(C)c1noc(C(=O)N[C@@H]2CCCCc3cc(-c4ccnc(NC(=O)C5CC5)c4)ccc32)n1 [Compound 18, (R)-3-(tert-butyl)-N-(2-(2-(cyclopropanecarboxamido)pyridin-4-yl)-6,7,8,9-tetrahydro-5H-benzo[7]annulen-5-yl)-1,2,4-oxadiazole-5-carboxamide]",≤ 1,≤ 100
"Cc1cc(-c2ccnc(NC(=O)C3CC3)c2)ccc1[C@@H](C)NC(=O)c1noc(C(C)(C)C)n1 [Compound 19, (R)-5-(tert-butyl)-N-(1-(4-(2-(cyclopropanecarboxamido)pyridin-4-yl)-2-methylphenyl)ethyl)-1,2,4-oxadiazole-3-carboxamide]",≤ 1,≤ 100
"Cc1cc(-c2cc(NC(=O)C3CC3)ncc2F)ccc1[C@@H](C)NC(=O)c1noc(C(C)(C)C)n1 [Compound 20, (R)-5-(tert-butyl)-N-(1-(4-(2-(cyclopropanecarboxamido)-5-fluoropyridin-4-yl)-2-methylphenyl)ethyl)-1,2,4-oxadiazole-3-carboxamide]",≤ 1,≤ 100
"C[C@@H](NC(=O)c1noc(C(C)(C)C)n1)c1ccc(-c2ccnc(NC(=O)C3CC3)c2)cc1Cl [Compound 21, (R)-5-(tert-butyl)-N-(1-(2-chloro-4-(2-(cyclopropanecarboxamido)pyridin-4-yl)phenyl)ethyl)-1,2,4-oxadiazole-3-carboxamide]",≤ 1,≤ 100
